Measured values from PubChem BioAssay (NCI).
Values joined by “and” are separate entries in the source; they are usually repeats but may differ in a detail not shown here. Equal entries are not always repeated.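 In this assay, cells in 96-well plates receive the compound at five concentrations for 48 hours. Endpoints are linearly interpolated between the surrounding concentrations. Abbreviation: GI50, concentration required for 50% inhibition of growth. TGI marks complete inhibition of growth.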

What was measured:
Experiment in all cases: inhibition of tumour cell growth, NCI panel, 48 h
[1] = system: SR leukemia
[2] = system: OVCAR-3 ovarian
[3] = system: HCT-116 colon
[4] = system: SF-539 CNS
[5] = system: 786-0 renal
[6] = system: SNB-75 CNS
[7] = system: OVCAR-4 ovarian
[8] = system: HOP-92 NSCLC
[9] = system: HOP-62 NSCLC
[10] = system: HT29 colon
[11] = system: M19-MEL melanoma
[12] = system: SN12C renal
[13] = system: OVCAR-8 ovarian
[14] = system: RXF 393 renal
[15] = system: SK-MEL-5 melanoma
[16] = system: SNB-78 CNS
[17] = system: UO-31 renal
[18] = system: NCI-H460 lung
[19] = system: CAKI-1 renal
[20] = system: SF-295 CNS
[21] = system: ACHN renal
[22] = system: HCT-15 colon
[23] = system: LXFL 529 NSCLC
[24] = system: UACC-62 melanoma
[25] = system: SK-OV-3 ovarian
[26] = system: U251 CNS
[27] = system: NCI-H522 lung
[28] = system: DMS 273 small cell lung
[29] = system: KM20L2 colon
[30] = system: RXF-631 renal
[31] = system: A498 renal
[32] = system: NCI-H23 lung
[33] = system: SF-268 CNS
[34] = system: DLD-1 colon
[35] = system: MOLT-4 leukemia
[36] = system: SK-MEL-28 melanoma
[37] = system: UACC-257 melanoma
[38] = system: HOP-18 NSCLC
[39] = system: OVCAR-5 ovarian
[40] = system: EKVX NSCLC
[41] = system: HCC-2998 colon
[42] = system: SK-MEL-2 melanoma
[43] = system: HL-60(TB) leukemia
[44] = system: IGROV1 ovarian
[45] = system: RPMI-8226 leukemia
[46] = system: SW-620 colon
[47] = system: M14 melanoma
[48] = system: MALME-3M melanoma
[49] = system: DMS 114 small cell lung
[50] = system: CCRF-CEM leukemia
[51] = system: KM12 colon
[52] = system: XF 498 CNS
[53] = system: LOX IMVI melanoma
[54] = system: TK-10 renal
[55] = system: COLO 205 colon
[56] = system: SNB-19 CNS
[57] = system: NCI-H226 lung
[58] = system: K-562 leukemia
[59] = system: A549 NSCLC

With `CCC1=C(C[C@H]2NCCc3cc(OC)c(OC)cc32)C[C@H]2c3cc(OC)c(OC)cc3CCN2C1` the TGI [1] was 55.1 µM, the TGI [2] was 0.158 µM and the TGI [3] was 0.0745 µM. It also gave a TGI [4] of 0.148 µM, a TGI [5] of 0.107 µM and a TGI [6] of 0.107 µM. It also gave a TGI [7] of 0.0717 µM, a TGI [8] of 0.095 µM and a TGI [9] of 0.106 µM. It also gave a TGI [10] of 0.182 µM, a TGI [11] of 0.0983 µM and a TGI [12] of 0.193 µM. The TGI [13] was 0.137 µM, the TGI [14] was 0.0698 µM and the TGI [15] was 0.0551 µM. The TGI [16] was 1.32 µM, the TGI [17] was 0.923 µM and the TGI [18] was 0.134 µM. The TGI [19] was 0.199 µM, the TGI [20] was 0.189 µM and the TGI [21] was 0.28 µM. The TGI [22] was 1.02 µM, the TGI [23] was 6.4 µM and the TGI [24] was 0.138 µM. The TGI [25] was 0.73 µM, the TGI [26] was 0.188 µM and the TGI [27] was 0.0688 µM. The TGI [28] was 0.109 µM, the TGI [29] was 0.14 µM and the TGI [30] was 1.43 µM. It also gave a TGI [31] of 0.0497 µM, a TGI [32] of 0.0532 µM and a TGI [33] of 0.407 µM. It also gave a TGI [34] of 0.349 µM, a TGI [35] of over 100 µM and a TGI [36] of 0.192 µM. For the same compound, the TGI [37] was 0.365 µM, the TGI [38] was over 100 µM and the TGI [39] was 0.49 µM. It also gave a TGI [40] of 0.175 µM, a TGI [41] of 0.0964 µM and a TGI [42] of 0.0713 µM. For the same compound, the TGI [43] was 0.0765 µM, the TGI [44] was 0.444 µM and the TGI [45] was 0.229 µM. For the same compound, the TGI [46] was 11.3 µM, the TGI [47] was 0.069 µM and the TGI [48] was 0.637 µM. It also gave a TGI [49] of 0.0598 µM.
With `Cc1ccc(SSCC(O)C(O)CSSc2ccc(C)cc2)cc1` (configuration not stated) the TGI [1] was 15.7 µM and 23.7 µM, the GI50 [2] was 6.31 µM and 13.9 µM and the TGI [2] was 18.4 µM and 27 µM. For the same compound, the TGI [3] was 20.1 µM and 24.5 µM, the TGI [4] was 8.17 µM and 14.3 µM and the GI50 [5] was 5.15 µM and 12.4 µM. The TGI [5] was 17.5 µM and 24.9 µM, the GI50 [6] was 5.97 µM and 16.2 µM and the TGI [6] was 22.2 µM and 31.8 µM. For the same compound, the TGI [7] was 26.8 µM and 28.5 µM, the TGI [8] was 26 µM and 31.4 µM and the GI50 [9] was 12.5 µM and 3.81 µM. For the same compound, the TGI [9] was 26.6 µM and 9.98 µM, the TGI [10] was 27.8 µM and 49.8 µM and the TGI [11] was 25.5 µM and 36.9 µM. For the same compound, the GI50 [12] was 4.74 µM and 10.5 µM, the TGI [12] was 17.3 µM and 23.2 µM and the GI50 [13] was 4.21 µM and 17.4 µM. The TGI [13] was 14.6 µM and 31.2 µM, the TGI [14] was 16.9 µM and 16.1 µM and the TGI [15] was 25.6 µM and 19.9 µM. For the same compound, the TGI [16] was 52.6 µM, the TGI [17] was 17.6 µM and 15.3 µM and the TGI [18] was 32.2 µM and 36.3 µM. For the same compound, the GI50 [19] was 4.04 µM and 13.2 µM, the TGI [19] was 15.4 µM and 27 µM and the GI50 [20] was 4.31 µM and 12.6 µM. The TGI [20] was 16.4 µM and 26.1 µM, the TGI [21] was 23.6 µM and 29.3 µM and the TGI [22] was 28.2 µM and 27.7 µM. For the same compound, the TGI [23] was 19 µM and 22.9 µM, the GI50 [24] was 4.81 µM and 15.8 µM and the TGI [24] was 17.2 µM and 31 µM. The GI50 [25] was 10.8 µM and 22.8 µM, the TGI [25] was 23.7 µM and 43.6 µM and the TGI [26] was 10.9 µM and 12 µM. The TGI [50] was 4.08 µM, the TGI [51] was 21.2 µM and 23.8 µM and the TGI [27] was 3.38 µM and 3.68 µM. The TGI [52] was 26.7 µM and 31.4 µM, the TGI [53] was 2.78 µM and 4.21 µM and the GI50 [28] was 4.26 µM and 10.5 µM. The TGI [28] was 14.9 µM and 22.5 µM, the TGI [54] was 35.2 µM and 27.7 µM and the TGI [29] was 24.2 µM and 26.6 µM. For the same compound, the GI50 [55] was 1.99 µM and 14.2 µM, the TGI [55] was 3.75 µM and 27.3 µM and the TGI [56] was 31.5 µM and 31.7 µM. For the same compound, the GI50 [30] was 10.1 µM and 3.4 µM, the TGI [30] was 22.2 µM and 15.7 µM and the TGI [31] was 18 µM. The TGI [32] was 20.9 µM and 24.1 µM, the GI50 [33] was 4.6 µM and 10.4 µM and the TGI [33] was 19.1 µM and 29.2 µM. The TGI [34] was 32.1 µM and 30 µM, the GI50 [35] was 1430 nM and 3120 nM and the TGI [35] was 5.96 µM and 20.9 µM. For the same compound, the TGI [36] was 26.8 µM and 28.6 µM, the TGI [37] was 30.5 µM and 28.1 µM and the GI50 [38] was 13.5 µM and 27.2 µM. For the same compound, the TGI [38] was 31.9 µM and 53.6 µM, the TGI [39] was 30.2 µM and 38.4 µM and the TGI [57] was 30.4 µM and 29 µM. For the same compound, the TGI [40] was 36 µM and 36.1 µM, the TGI [41] was 28.3 µM and 28.9 µM and the GI50 [58] was 4.84 µM and 15.3 µM. For the same compound, the TGI [58] was 28.3 µM and 46.8 µM, the TGI [42] was 20.5 µM and the TGI [59] was 35.9 µM and 26.4 µM. For the same compound, the GI50 [43] was 1010 nM and 4600 nM, the TGI [43] was 3.1 µM and 25.6 µM and the TGI [44] was 5.87 µM and 6.81 µM. For the same compound, the TGI [45] was 12.8 µM and 22 µM, the TGI [46] was 20.2 µM and 27.2 µM and the TGI [47] was 18.9 µM and 21.6 µM. For the same compound, the TGI [48] was 36 µM and 30.7 µM, the GI50 [49] was 2.07 µM and 7.05 µM and the TGI [49] was 5.14 µM and 20.4 µM.
